According to publication PMC9856672, “SGC-CAMKK2-1: A Chemical Probe for CAMKK2” (Cells, 2023):

Assays:
CSNK1A1 = molecular target: T1, CSNK1A1 (Homo sapiens, UniProt P48729); assay: KINOMEscan at 1 μM, CSNK1A1; type: binding; conditions: 1000 nM, read-out: Percent Control
T1 construct: purchased Eurofins DiscoverX KINOMEscan
Source text: (§1) Supplement cells-12-00287-s001.zip/File S2. KinomeScan data for the CAMKK2 probe and negative control.xlsx, sheet "SGC-CAMKK2-1N" | column: Percent Control

YSK1 = molecular target: T2, YSK1 (Homo sapiens, UniProt O00506); assay: KINOMEscan at 1 μM, YSK1; type: binding; conditions: 1000 nM, read-out: Percent Control
T2 construct: purchased Eurofins DiscoverX KINOMEscan
Source text: as §1

DAPK3 [1] = molecular target: T3, DAPK3 (Homo sapiens, UniProt O43293); assay: KINOMEscan at 1 μM, DAPK3; type: binding; conditions: 1000 nM, read-out: Percent Control
T3 construct: purchased Eurofins DiscoverX KINOMEscan
Source text: as §1

SGK2 = molecular target: T4, SGK2 (Homo sapiens, UniProt Q9HBY8); assay: KINOMEscan at 1 μM, SGK2; type: binding; conditions: 1000 nM, read-out: Percent Control
T4 construct: purchased Eurofins DiscoverX KINOMEscan
Source text: as §1

PRKG2 = molecular target: T5, PRKG2 (Homo sapiens, UniProt Q13237); assay: KINOMEscan at 1 μM, PRKG2; type: binding; conditions: 1000 nM, read-out: Percent Control
T5 construct: purchased Eurofins DiscoverX KINOMEscan
Source text: as §1

TRKB = molecular target: T6, TRKB (Homo sapiens, UniProt Q16620); assay: KINOMEscan at 1 μM, TRKB; type: binding; conditions: 1000 nM, read-out: Percent Control
T6 construct: purchased Eurofins DiscoverX KINOMEscan
Source text: as §1

PAK4 = molecular target: T7, PAK4 (Homo sapiens, UniProt O96013); assay: KINOMEscan at 1 μM, PAK4; type: binding; conditions: 1000 nM, read-out: Percent Control
T7 construct: purchased Eurofins DiscoverX KINOMEscan
Source text: as §1

EGFR(L858R,T790M) = molecular target: T8, EGFR(L858R,T790M) (Homo sapiens, UniProt P00533, L858R/T790M); assay: KINOMEscan at 1 μM, EGFR(L858R,T790M); type: binding; conditions: 1000 nM, read-out: Percent Control
T8 construct: purchased Eurofins DiscoverX KINOMEscan
Source text: as §1

CLK3 = molecular target: T9, CLK3 (Homo sapiens, UniProt P49761); assay: KINOMEscan at 1 μM, CLK3; type: binding; conditions: 1000 nM, read-out: Percent Control
T9 construct: purchased Eurofins DiscoverX KINOMEscan
Source text: as §1

PIP5K1A = molecular target: T10, PIP5K1A (Homo sapiens, UniProt Q99755); assay: KINOMEscan at 1 μM, PIP5K1A; type: binding; conditions: 1000 nM, read-out: Percent Control
T10 construct: purchased Eurofins DiscoverX KINOMEscan
Source text: as §1

PDGFRB = molecular target: T11, PDGFRB (Homo sapiens, UniProt P09619); assay: KINOMEscan at 1 μM, PDGFRB; type: binding; conditions: 1000 nM, read-out: Percent Control
T11 construct: purchased Eurofins DiscoverX KINOMEscan
Source text: as §1

SIK2 = molecular target: T12, SIK2 (Homo sapiens, UniProt Q9H0K1); assay: KINOMEscan at 1 μM, SIK2; type: binding; conditions: 1000 nM, read-out: Percent Control
T12 construct: purchased Eurofins DiscoverX KINOMEscan
Source text: as §1

AMPK-alpha2 = molecular target: T13, AMPK-alpha2 (Homo sapiens, UniProt P54646); assay: KINOMEscan at 1 μM, AMPK-alpha2; type: binding; conditions: 1000 nM, read-out: Percent Control
T13 construct: purchased Eurofins DiscoverX KINOMEscan
Source text: as §1

EGFR(L861Q) = molecular target: T14, EGFR(L861Q) (Homo sapiens, UniProt P00533, L861Q); assay: KINOMEscan binding assay at 1 μM, EGFR(L861Q); conditions: Compound Concentration 1000 nM; read-out: Percent Control
T14 construct: purchased Eurofins DiscoverX KINOMEscan
Source text: as §1

SIK = molecular target: T15, SIK (Homo sapiens, UniProt P57059); assay: KINOMEscan binding assay at 1 μM, SIK; conditions: Compound Concentration 1000 nM; read-out: Percent Control
T15 construct: purchased Eurofins DiscoverX KINOMEscan
Source text: as §1

SgK110 = molecular target: T16, SgK110 (Homo sapiens, UniProt P0C264); assay: KINOMEscan 1 μM, SgK110; type: binding; conditions: 1000 nM; Entrez SgK110; read-out: Percent Control
T16 construct: purchased Eurofins DiscoverX KINOMEscan
Source text: (§2) Supplement cells-12-00287-s001.zip/File S2. KinomeScan data for the CAMKK2 probe and negative control.xlsx, sheet "SGC-CAMKK2-1" | column: Percent Control

LCK = molecular target: T17, LCK (Homo sapiens, UniProt P06239); assay: KINOMEscan 1 μM, LCK; type: binding; conditions: 1000 nM; Entrez LCK; read-out: Percent Control
T17 construct: purchased Eurofins DiscoverX KINOMEscan
Source text: as §2

ABL1-phosphorylated = molecular target: T18, ABL1-phosphorylated (Homo sapiens, UniProt P00519); assay: KINOMEscan 1 μM, ABL1-phosphorylated; type: binding; conditions: 1000 nM; Entrez ABL1; read-out: Percent Control
T18 construct: purchased Eurofins DiscoverX KINOMEscan
Source text: as §2

BUB1 = molecular target: T19, BUB1 (Homo sapiens, UniProt O43683); assay: KINOMEscan 1 μM, BUB1; type: binding; conditions: 1000 nM; Entrez BUB1; read-out: Percent Control
T19 construct: purchased Eurofins DiscoverX KINOMEscan
Source text: as §2

CTK = molecular target: T20, CTK (Homo sapiens, UniProt P42679); assay: KINOMEscan 1 μM, CTK; type: binding; conditions: 1000 nM; Entrez MATK; read-out: Percent Control
T20 construct: purchased Eurofins DiscoverX KINOMEscan
Source text: as §2

DAPK3 [2] = molecular target: T3, DAPK3; assay: KINOMEscan 1 μM, DAPK3; type: binding; conditions: 1000 nM; Entrez DAPK3; read-out: Percent Control
Source text: as §2

DDR2 = molecular target: T21, DDR2 (Homo sapiens, UniProt Q16832); assay: KINOMEscan 1 μM, DDR2; type: binding; conditions: 1000 nM; Entrez DDR2; read-out: Percent Control
T21 construct: purchased Eurofins DiscoverX KINOMEscan
Source text: as §2

FLT3(K663Q) = molecular target: T22, FLT3(K663Q) (Homo sapiens, UniProt P36888, K663Q); assay: KINOMEscan 1 μM, FLT3(K663Q); type: binding; conditions: 1000 nM; Entrez FLT3; read-out: Percent Control
T22 construct: purchased Eurofins DiscoverX KINOMEscan
Source text: as §2

ITK = molecular target: T23, ITK (Homo sapiens, UniProt Q08881); assay: KINOMEscan 1 μM, ITK; type: binding; conditions: 1000 nM; Entrez ITK; read-out: Percent Control
T23 construct: purchased Eurofins DiscoverX KINOMEscan
Source text: as §2

KIT = molecular target: T24, KIT (Homo sapiens, UniProt P10721); assay: KINOMEscan 1 μM, KIT; type: binding; conditions: 1000 nM; Entrez KIT; read-out: Percent Control
T24 construct: purchased Eurofins DiscoverX KINOMEscan
Source text: as §2

LATS1 = molecular target: T25, LATS1 (Homo sapiens, UniProt O95835); assay: KINOMEscan 1 μM, LATS1; type: binding; conditions: 1000 nM; Entrez LATS1; read-out: Percent Control
T25 construct: purchased Eurofins DiscoverX KINOMEscan
Source text: as §2

MAP3K1 = molecular target: T26, MAP3K1 (Homo sapiens, UniProt Q13233); assay: KINOMEscan 1 μM, MAP3K1; type: binding; conditions: 1000 nM; Entrez MAP3K1; read-out: Percent Control
T26 construct: purchased Eurofins DiscoverX KINOMEscan
Source text: as §2

MKK7 = molecular target: T27, MKK7 (Homo sapiens, UniProt O14733); assay: KINOMEscan 1 μM, MKK7; type: binding; conditions: 1000 nM; Entrez MAP2K7; read-out: Percent Control
T27 construct: purchased Eurofins DiscoverX KINOMEscan
Source text: as §2

MYLK4 = molecular target: T28, MYLK4 (Homo sapiens, UniProt Q86YV6); assay: KINOMEscan 1 μM, MYLK4; type: binding; conditions: 1000 nM; Entrez MYLK4; read-out: Percent Control
T28 construct: purchased Eurofins DiscoverX KINOMEscan
Source text: as §2

NEK5 = molecular target: T29, NEK5 (Homo sapiens, UniProt Q6P3R8); assay: KINOMEscan 1 μM, NEK5; type: binding; conditions: 1000 nM; Entrez NEK5; read-out: Percent Control
T29 construct: purchased Eurofins DiscoverX KINOMEscan
Source text: as §2

p38-alpha = molecular target: T30, p38-alpha (Homo sapiens, UniProt Q16539); assay: KINOMEscan 1 μM, p38-alpha; type: binding; conditions: 1000 nM; Entrez MAPK14; read-out: Percent Control
T30 construct: purchased Eurofins DiscoverX KINOMEscan
Source text: as §2

SBK1 = molecular target: T31, SBK1 (Homo sapiens, UniProt Q52WX2); assay: DiscoverX KINOMEscan binding assay at 1 μM, SBK1; conditions: Compound Concentration 1000 nM, read-out: Percent Control
T31 construct: purchased Eurofins DiscoverX KINOMEscan
Source text: as §2

SGK3 = molecular target: T32, SGK3 (Homo sapiens, UniProt Q96BR1); assay: DiscoverX KINOMEscan binding assay at 1 μM, SGK3; conditions: Compound Concentration 1000 nM, read-out: Percent Control
T32 construct: purchased Eurofins DiscoverX KINOMEscan
Source text: as §2

YANK1 = molecular target: T33, YANK1 (Homo sapiens, UniProt Q8WU08); assay: DiscoverX KINOMEscan binding assay at 1 μM, YANK1; conditions: YANK1 (STK32A); Compound Concentration 1000 nM; read-out: Percent Control
T33 construct: purchased Eurofins DiscoverX KINOMEscan
Source text: as §2

T3 sequence (O43293 whole entry): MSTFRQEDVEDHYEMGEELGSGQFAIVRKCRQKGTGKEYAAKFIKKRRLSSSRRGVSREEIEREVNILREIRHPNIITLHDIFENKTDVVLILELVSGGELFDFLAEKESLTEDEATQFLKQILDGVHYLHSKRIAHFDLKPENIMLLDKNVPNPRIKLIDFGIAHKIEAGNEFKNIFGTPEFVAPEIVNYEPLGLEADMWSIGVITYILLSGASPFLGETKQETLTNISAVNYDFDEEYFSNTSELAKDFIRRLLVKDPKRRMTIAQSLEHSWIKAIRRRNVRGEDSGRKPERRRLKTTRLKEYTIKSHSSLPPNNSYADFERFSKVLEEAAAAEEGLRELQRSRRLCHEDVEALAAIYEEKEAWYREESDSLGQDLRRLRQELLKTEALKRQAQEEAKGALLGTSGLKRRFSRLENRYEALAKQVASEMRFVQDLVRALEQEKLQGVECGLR
T12 sequence (Q9H0K1 whole entry): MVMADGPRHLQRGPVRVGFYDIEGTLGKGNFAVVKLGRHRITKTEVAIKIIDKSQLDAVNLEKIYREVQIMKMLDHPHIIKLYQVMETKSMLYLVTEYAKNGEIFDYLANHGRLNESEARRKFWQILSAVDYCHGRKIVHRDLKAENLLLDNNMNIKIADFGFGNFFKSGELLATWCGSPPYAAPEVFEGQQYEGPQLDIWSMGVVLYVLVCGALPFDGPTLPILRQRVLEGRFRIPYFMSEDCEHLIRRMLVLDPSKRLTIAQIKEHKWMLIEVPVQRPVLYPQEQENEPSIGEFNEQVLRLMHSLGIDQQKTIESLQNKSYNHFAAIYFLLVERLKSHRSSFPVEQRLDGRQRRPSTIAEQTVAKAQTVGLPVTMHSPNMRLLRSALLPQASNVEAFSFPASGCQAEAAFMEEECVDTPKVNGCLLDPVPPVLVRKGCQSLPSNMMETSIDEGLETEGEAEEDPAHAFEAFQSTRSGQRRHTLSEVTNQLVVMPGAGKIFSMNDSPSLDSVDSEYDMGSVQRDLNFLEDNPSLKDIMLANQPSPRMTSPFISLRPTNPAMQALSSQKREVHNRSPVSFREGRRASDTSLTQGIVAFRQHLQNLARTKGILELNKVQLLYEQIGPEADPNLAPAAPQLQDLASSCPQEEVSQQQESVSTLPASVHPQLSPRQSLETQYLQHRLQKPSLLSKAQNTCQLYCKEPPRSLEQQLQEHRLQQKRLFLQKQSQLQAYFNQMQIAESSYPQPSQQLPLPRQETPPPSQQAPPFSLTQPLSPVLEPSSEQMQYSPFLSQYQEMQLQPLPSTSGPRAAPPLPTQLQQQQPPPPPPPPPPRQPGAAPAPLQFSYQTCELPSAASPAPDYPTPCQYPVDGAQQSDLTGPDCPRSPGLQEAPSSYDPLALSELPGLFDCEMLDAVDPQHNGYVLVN
T5 sequence (Q13237 whole entry): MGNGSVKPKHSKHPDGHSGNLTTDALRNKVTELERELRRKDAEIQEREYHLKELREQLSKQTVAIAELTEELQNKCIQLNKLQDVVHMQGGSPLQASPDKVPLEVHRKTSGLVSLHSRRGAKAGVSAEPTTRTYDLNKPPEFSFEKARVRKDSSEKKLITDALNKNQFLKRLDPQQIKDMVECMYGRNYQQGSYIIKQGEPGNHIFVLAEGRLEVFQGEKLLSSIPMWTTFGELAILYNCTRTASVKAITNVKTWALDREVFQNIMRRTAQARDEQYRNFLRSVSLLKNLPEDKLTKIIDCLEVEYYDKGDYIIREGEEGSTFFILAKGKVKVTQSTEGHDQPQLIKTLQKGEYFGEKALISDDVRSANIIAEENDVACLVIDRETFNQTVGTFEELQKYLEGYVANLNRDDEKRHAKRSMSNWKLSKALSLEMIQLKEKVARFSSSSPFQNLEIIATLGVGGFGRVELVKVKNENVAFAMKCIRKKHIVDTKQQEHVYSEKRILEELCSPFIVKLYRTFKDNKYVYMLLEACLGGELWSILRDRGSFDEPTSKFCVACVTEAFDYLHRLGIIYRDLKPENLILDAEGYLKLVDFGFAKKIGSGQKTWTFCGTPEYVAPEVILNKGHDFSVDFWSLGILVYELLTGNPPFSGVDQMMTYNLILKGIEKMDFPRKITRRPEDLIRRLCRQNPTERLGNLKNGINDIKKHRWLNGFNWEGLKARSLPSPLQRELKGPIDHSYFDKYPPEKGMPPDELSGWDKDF
T27 sequence (O14733 whole entry): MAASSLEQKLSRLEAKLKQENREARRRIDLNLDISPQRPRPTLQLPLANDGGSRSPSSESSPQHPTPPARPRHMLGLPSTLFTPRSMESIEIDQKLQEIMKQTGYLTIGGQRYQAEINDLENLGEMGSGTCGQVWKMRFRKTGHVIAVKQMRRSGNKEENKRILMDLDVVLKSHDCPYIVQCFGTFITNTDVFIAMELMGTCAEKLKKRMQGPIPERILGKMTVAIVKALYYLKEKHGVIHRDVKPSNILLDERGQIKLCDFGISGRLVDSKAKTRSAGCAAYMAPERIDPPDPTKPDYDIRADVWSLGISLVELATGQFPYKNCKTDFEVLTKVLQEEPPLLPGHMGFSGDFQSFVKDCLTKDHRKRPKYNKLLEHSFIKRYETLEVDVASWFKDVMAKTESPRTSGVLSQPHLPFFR
T20 sequence (P42679 whole entry): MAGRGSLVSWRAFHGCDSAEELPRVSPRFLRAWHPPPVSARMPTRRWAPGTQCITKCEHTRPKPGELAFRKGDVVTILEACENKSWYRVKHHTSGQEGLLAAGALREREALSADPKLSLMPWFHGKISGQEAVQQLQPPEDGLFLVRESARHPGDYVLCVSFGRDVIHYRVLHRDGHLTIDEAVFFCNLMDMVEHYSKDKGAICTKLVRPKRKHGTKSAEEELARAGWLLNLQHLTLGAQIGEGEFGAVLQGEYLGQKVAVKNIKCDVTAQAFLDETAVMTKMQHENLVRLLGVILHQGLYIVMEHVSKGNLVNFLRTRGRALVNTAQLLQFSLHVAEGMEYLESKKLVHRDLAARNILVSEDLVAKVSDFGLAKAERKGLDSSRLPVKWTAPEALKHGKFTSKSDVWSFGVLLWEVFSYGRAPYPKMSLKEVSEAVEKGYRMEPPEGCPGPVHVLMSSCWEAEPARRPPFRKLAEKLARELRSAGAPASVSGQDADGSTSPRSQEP
T8 sequence (P00533 25-1210 T790M/L858R): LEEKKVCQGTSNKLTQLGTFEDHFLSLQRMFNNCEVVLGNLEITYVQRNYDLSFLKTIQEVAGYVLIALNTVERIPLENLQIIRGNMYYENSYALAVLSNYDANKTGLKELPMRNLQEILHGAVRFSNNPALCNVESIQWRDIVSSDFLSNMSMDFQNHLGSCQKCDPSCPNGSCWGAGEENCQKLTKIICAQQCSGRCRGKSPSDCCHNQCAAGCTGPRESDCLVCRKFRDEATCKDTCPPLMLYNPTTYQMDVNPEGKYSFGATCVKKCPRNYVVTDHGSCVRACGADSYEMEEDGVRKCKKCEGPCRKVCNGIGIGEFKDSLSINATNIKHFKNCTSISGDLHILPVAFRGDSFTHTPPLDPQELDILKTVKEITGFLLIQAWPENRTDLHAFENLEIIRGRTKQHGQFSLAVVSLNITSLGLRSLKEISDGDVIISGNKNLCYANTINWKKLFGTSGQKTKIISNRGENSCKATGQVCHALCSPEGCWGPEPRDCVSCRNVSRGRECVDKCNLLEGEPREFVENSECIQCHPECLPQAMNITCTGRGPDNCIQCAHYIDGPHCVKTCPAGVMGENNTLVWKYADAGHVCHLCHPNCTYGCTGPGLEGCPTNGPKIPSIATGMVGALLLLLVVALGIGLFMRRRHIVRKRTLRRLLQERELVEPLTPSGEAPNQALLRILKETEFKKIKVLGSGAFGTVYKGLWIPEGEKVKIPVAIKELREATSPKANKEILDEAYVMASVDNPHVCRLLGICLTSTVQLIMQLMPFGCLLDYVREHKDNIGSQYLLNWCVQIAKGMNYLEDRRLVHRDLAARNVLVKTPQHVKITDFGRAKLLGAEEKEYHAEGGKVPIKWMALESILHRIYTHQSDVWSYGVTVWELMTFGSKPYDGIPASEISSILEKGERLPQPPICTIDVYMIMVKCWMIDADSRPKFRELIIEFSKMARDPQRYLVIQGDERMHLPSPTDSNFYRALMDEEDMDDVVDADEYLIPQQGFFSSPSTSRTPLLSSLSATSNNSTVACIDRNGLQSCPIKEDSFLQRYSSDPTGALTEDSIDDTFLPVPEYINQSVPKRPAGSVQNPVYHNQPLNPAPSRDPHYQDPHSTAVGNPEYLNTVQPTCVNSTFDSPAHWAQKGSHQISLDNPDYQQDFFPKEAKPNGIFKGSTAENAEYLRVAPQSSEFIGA
T6 sequence (Q16620 32-822): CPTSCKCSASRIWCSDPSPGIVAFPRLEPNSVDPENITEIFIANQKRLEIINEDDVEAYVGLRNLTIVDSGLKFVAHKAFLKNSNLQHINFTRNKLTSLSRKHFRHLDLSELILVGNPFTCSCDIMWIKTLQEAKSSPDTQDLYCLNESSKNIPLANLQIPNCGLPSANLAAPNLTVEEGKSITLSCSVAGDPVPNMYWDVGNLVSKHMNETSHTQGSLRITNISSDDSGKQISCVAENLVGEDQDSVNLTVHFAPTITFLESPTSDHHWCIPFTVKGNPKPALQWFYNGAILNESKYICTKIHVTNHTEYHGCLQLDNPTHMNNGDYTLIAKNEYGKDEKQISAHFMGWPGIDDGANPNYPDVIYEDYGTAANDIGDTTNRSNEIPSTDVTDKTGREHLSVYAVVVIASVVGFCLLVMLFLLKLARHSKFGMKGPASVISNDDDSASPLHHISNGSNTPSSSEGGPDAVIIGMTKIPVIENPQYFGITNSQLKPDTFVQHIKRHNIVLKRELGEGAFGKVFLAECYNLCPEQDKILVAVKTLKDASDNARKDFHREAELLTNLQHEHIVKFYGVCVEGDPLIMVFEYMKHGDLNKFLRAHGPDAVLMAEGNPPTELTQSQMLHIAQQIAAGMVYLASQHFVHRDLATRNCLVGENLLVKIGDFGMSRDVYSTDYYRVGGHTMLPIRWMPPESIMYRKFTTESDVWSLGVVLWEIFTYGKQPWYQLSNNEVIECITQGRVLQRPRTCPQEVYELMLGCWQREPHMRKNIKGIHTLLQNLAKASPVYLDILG

Work on `O=C(O)c1ccc(-c2coc3ncc(-c4ccccc4)cc23)cc1Cl` [SGC-CAMKK2-1N (UNC-YL-83)] yielded a remaining binding at 1 µM (CSNK1A1) of 44%, a remaining binding at 1 µM (YSK1) of 66% and a remaining binding at 1 µM (DAPK3 [1]) of 71%. It also gave a remaining binding at 1 µM (SGK2) of 73%, a remaining binding at 1 µM (PRKG2) of 80% and a remaining binding at 1 µM (TRKB) of 81%. It also gave a remaining binding at 1 µM (PAK4) of 82%, a remaining binding at 1 µM (EGFR(L858R,T790M)) of 83% and a remaining binding at 1 µM (CLK3) of 85%. The remaining binding at 1 µM (PIP5K1A) was 87%, the remaining binding at 1 µM (PDGFRB) was 92% and the remaining binding at 1 µM (SIK2) was 93%. For the same compound, the remaining binding at 1 µM (AMPK-alpha2) was 100%, the remaining binding at 1 µM (EGFR(L861Q)) was 100% and the remaining binding at 1 µM (SIK) was 100%.
For `Cc1cccc(-c2cnc3occ(-c4ccc(C(=O)O)c(C5CCCC5)c4)c3c2)c1` [SGC-CAMKK2-1 (YL-36)], the remaining binding at 1 µM (SgK110) was 57%, the remaining binding at 1 µM (LCK) was 86% and the remaining binding at 1 µM (ABL1-phosphorylated) was 98%. It also gave a remaining binding at 1 µM (BUB1) of 100%, a remaining binding at 1 µM (CTK) of 100% and a remaining binding at 1 µM (DAPK3 [2]) of 100%. It also gave a remaining binding at 1 µM (DDR2) of 100%, a remaining binding at 1 µM (FLT3(K663Q)) of 100% and a remaining binding at 1 µM (ITK) of 100%. For the same compound, the remaining binding at 1 µM (KIT) was 100%, the remaining binding at 1 µM (LATS1) was 100% and the remaining binding at 1 µM (MAP3K1) was 100%. It also gave a remaining binding at 1 µM (MKK7) of 100%, a remaining binding at 1 µM (MYLK4) of 100% and a remaining binding at 1 µM (NEK5) of 100%. The remaining binding at 1 µM (p38-alpha) was 100%, the remaining binding at 1 µM (SBK1) was 100% and the remaining binding at 1 µM (SGK3) was 100%. The remaining binding at 1 µM (YANK1) was 100%.
